Counter-ions that a name gives are not always drawn.
What was measured:
[1] = molecular target: T1, dipeptidyl peptidase-IV enzyme (DPP-4) (Homo sapiens, UniProt P27487); test: DPP-4 inhibition, continuous fluorometric assay with substrate Gly-Pro-AMC; format: biochemical; conditions: soluble human DPP-4, 50 μM Gly-Pro-AMC, pH 7.5, room temperature
T1 construct: The enzyme used in these studies was soluble (transmembrane domain and cytoplasmic extension excluded) human protein; made in house; host or cells: baculovirus expression system (Bac-To-Bac, Gibco BRL)
T1 sequence (P27487 29-766 limits assumed): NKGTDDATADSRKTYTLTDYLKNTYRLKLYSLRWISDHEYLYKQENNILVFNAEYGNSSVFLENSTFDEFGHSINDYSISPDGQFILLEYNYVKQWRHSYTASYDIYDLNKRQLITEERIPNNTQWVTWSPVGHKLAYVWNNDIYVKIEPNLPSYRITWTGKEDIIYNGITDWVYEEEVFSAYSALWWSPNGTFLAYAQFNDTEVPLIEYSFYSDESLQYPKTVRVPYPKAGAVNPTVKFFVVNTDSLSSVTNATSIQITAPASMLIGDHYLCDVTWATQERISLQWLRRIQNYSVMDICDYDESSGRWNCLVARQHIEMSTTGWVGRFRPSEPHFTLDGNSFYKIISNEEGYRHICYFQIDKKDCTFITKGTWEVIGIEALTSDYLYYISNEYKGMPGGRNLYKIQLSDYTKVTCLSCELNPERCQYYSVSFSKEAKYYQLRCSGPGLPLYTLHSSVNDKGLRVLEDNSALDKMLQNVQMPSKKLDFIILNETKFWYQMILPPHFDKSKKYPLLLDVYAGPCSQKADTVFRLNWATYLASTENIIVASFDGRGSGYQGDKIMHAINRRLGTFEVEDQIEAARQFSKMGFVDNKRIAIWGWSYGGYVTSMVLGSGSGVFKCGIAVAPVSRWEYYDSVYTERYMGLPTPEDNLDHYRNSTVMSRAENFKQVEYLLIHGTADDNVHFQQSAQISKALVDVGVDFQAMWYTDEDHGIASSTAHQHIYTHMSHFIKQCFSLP
Protocol: Inhibition constants are determined as follows. A continuous fluorometric assay is employed with the substrate Gly-Pro-AMC, which is cleaved by DPP-4 to release the fluorescent AMC leaving group. […] A typical reaction contains approximately 50 pM enzyme, 50 μM Gly-Pro-AMC, and buffer (100 mM HEPES, pH 7.5, 0.1 mg/mL BSA) in a total reaction volume of 100 μL. Liberation of AMC is monitored continuously in a 96-well plate fluorometer using an excitation wavelength of 360 nm and an emission wavelength of 460 nm. Under these conditions, approximately 0.8 μM AMC is produced in 30 min at 25 degrees C. The enzyme used in these studies was soluble (transmembrane domain and cytoplasmic extension excluded) human protein produced in a baculovirus expression system (Bac-To-Bac, Gibco BRL). […] To measure the dissociation constants for compounds, solutions of inhibitor in DMSO were added to reactions containing enzyme and substrate (final DMSO concentration is 1%). All experiments were conducted at room temperature using the standard reaction conditions described above. To determine the dissociation constants (Ki), reaction rates were fit by non-linear regression to the Michaelis-Menton equation for competitive inhibition. The errors in reproducing the dissociation constants are typically less than two-fold.

[2] = molecular target: DPP-4 (Homo sapiens, UniProt P27487); conditions: cited from earlier work
Chain of DPP-4 (P27487 39-766 limits assumed, species assumed): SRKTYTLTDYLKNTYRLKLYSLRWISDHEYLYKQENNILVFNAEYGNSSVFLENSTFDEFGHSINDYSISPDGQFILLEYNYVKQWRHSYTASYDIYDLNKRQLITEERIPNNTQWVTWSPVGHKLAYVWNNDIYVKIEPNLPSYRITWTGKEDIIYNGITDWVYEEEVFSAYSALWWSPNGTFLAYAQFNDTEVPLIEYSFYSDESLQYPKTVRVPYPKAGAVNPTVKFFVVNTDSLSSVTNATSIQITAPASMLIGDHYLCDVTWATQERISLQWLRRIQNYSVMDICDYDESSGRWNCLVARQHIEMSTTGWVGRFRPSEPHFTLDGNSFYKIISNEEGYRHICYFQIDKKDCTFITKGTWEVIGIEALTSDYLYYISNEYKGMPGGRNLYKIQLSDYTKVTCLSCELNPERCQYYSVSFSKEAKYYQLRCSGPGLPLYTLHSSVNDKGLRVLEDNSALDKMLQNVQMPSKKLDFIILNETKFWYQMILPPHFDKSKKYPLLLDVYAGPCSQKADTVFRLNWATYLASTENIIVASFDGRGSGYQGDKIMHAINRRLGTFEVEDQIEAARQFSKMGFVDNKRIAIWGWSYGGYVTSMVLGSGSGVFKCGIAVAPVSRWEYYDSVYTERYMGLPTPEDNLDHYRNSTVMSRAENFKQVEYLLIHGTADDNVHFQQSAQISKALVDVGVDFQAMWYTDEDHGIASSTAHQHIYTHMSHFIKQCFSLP

[3] = tested on: hematopoiesis; conditions: mouse, cyclophosphamide-induced neutropenia; WO 99/56753; cited from earlier work
[4] = tested on: cardiac allograft survival; conditions: rats; survival from day 7 to day 14; Transplantation 63:1495-1500 (1997); cited from earlier work

| Molecule | IC50 [1] | also measured |
| --- | --- | --- |
| NC(=O)Cn1cc2c(n1)CN([C@H]1CO[C@H](c3cc(F)c(F)cc3F)[C@@H](N)C1)C2 [Example 8] | 8.9 nM |  |
| CC(C)(O)Cn1ncc2c1CN([C@H]1CO[C@H](c3cc(F)c(F)cc3F)[C@@H](N)C1)C2 [Example 12] | 9.2 nM |  |
| N[C@H]1C[C@@H](N2Cc3cn(CCO)nc3C2)CO[C@@H]1c1cc(F)ccc1F [Example 4, 2-{5-[(3R,5S,6R)-5-amino-6-(2,5-difluorophenyl)tetrahydro-2H-pyran-3-yl]-5,6-dihydropyrrolo[3,4-c]pyrazol-2(4H)-yl}ethanol] | 11 nM |  |
| N[C@H]1C[C@@H](N2Cc3n[nH]c(-c4nnn[nH]4)c3C2)CO[C@@H]1c1cc(F)ccc1F [Example 14] | 0.6 nM |  |
| NC(=O)Cn1ncc2c1CN([C@H]1CO[C@H](c3cc(F)c(F)cc3F)[C@@H](N)C1)C2 [Example 9] | 7.4 nM |  |
| diprotin A |  | degradation of GRF in plasma to GRF[3-44] [2]: prevented |
| CC(C)[C@H](N)C(=O)N1CCC[C@H]1B(O)O [Val-Boro-Pro] |  | hematopoiesis [3]: stimulated hematopoiesis |
| N#Cc1[nH]nc2c1CN([C@H]1CO[C@H](c3cc(F)ccc3F)[C@@H](N)C1)C2 [Example 13] | 0.89 nM |  |
| CC(C)N1CCC(c2ccccc2)(c2ccccc2)CC1 [Prodipine, Pro-Pro-diphenyl-phosphonate] |  | cardiac allograft survival [4]: double cardiac allograft survival |
| CC(C)(O)Cn1cc2c(n1)CN([C@H]1CO[C@H](c3cc(F)ccc3F)[C@@H](N)C1)C2 [Example 5, 1-{5-[(3R,5S,6R)-5-amino-6-(2,5-difluorophenyl)tetrahydro-2H-pyran-3-yl]-5,6-dihydropyrrolo[3,4-c]pyrazol-2(4H)-yl}-2-methylpropan-2-ol] | 9.3 nM |  |
| N[C@H]1C[C@@H](N2Cc3cn(CC(=O)O)nc3C2)CO[C@@H]1c1cc(F)ccc1F [Example 3, {5-[(3R,5S,6R)-5-amino-6-(2,5-difluorophenyl)tetrahydro-2H-pyran-3-yl]-5,6-dihydropyrrolo[3,4-c]pyrazol-2(4H)-yl}acetic acid hydrochloride salt] | 9.4 nM |  |
| COC(=O)Cn1cc2c(n1)CN([C@H]1CO[C@H](c3cc(F)ccc3F)[C@@H](N)C1)C2 [Example 2, Methyl {5-[(3R,5S,6R)-5-amino-6-(2,5-difluorophenyl)tetrahydro-2H-pyran-3-yl]-5,6-dihydropyrrolo[3,4-c]pyrazol-2(4B)-yl}acetate] | 8.1 nM |  |
| NC(=O)Cn1cc2c(n1)CN([C@H]1CO[C@H](c3cc(F)ccc3F)[C@@H](N)C1)C2 [Example 1, 2-{5-[(3R,5S,6R)-5-amino-6-(2,5-difluorophenyl)tetrahydro-2H-pyran-3-yl]-5,6-dihydropyrrolo[3,4-c]pyrazol-2(4H)-yl}acetamide] | 6.8 nM |  |
| COC(=O)Cn1cc2c(n1)CN([C@H]1CO[C@H](c3cc(F)c(F)cc3F)[C@@H](N)C1)C2 [Example 10] | 12 nM |  |
| CC(C)(O)Cn1ncc2c1CN([C@H]1CO[C@H](c3cc(F)ccc3F)[C@@H](N)C1)C2 [Example 6, 1-{5-[(3R,5S,6R)-5-amino-6-(2,5-difluorophenyl)tetrahydro-2H-pyran-3-yl]-5,6-dihydropyrrolo-[3,4-c]pyrazol-1(4H)-yl}-2-methylpropan-2-ol] | 4 nM |  |
| NC(=O)Cn1ncc2c1CN([C@H]1CO[C@H](c3cc(F)ccc3F)[C@@H](N)C1)C2 [Example 7] | 7.5 nM |  |

Reference: US8455533B2, “Aminotetrahydropyrans as dipeptidyl peptidase-IV inhibitors for the treatment or prevention of diabetes” (Merck Sharp & Dohme Corp., priority 2009, dated 2013)
